{"source": "patent US10781262B2", "about": "“Combination therapy of T cell activating bispecific antigen binding molecules and PD-1 axis binding antagonists” (Hoffmann-La Roche Inc., priority 2014, dated 2020)", "key": {"[1]": {"test_system": "FolR1 expressing tumor cells and FolR1 negative cell line MKN-45", "test": "Flow cytometry binding to tumor cells with different FolR1 expression levels", "set-up": "species or system human", "from_the_text": "FIGS. 6A-E depict graphs summarizing binding of FolR1 IgGs to cells with different FolR1 expression levels. […] DP47 IgG was included as isotype control and MKN-45 were included as FolR1 negative cell line.\nThe used panel of tumor cells contains FolR1 high, intermediate and low expressing tumor cells and a FolR1 negative cell line.\nThe amount of bound construct is proportional to the FolR1 expression level and there is still good binding of the constructs to the FolR1 low cell line HT-29 detectable. […] DP47 TCB is an untargeted TCB and was prepared as described in WO2014/131712."}, "[2]": {"test_system": "SKOV3 cells", "test": "T cell mediated killing (LDH release)", "format": "cell-based, human", "details": "SKOV3 and HT-29 cells", "procedure": "(§1) FIGS. 7A-L depict graphs summarizing T cell mediated killing of HT-29 and SKOV3 cells. FolR1 TCBs were used to test T cell mediated killing of HT-29 and SKOV3 tumor cells and upregulation of activation marker on T cells upon killing. […] DP47 TCB was included as negative control. After 48 h incubation upregulation of the activation marker CD25 and CD69 on CD8 T cells and CD4 T cells upon killing of SKOV3 (FIGS. 7E-H) or HT-29 (FIG. 7I-L) tumor cells was assessed by flow cytometry.\n(§2) Overall killing of SKOV3 cells was higher compared to HT-29 which reflects the higher expression levels of FolR1 on SKOV3 cells (FIGS. 7A-D). In line with this, a strong upregulation of the activation marker CD25 and CD69 on CD4^+ T cells and CD8^+ T cells was detected. Activation of T cells was very similar in the presence of SKOV3 cells and HT-29 cells."}, "[3]": {"test_system": "CD4 and CD8 T cells with SKOV3 cells", "test": "T cell activation upon killing (CD25, CD69, flow cytometry)", "format": "cell-based, human", "details": "SKOV3 and HT-29 cells", "procedure": "as §1, §2"}, "[4]": {"test_system": "T cells in FolR1 positive tumor digests or malignant effusions", "test": "Ex vivo treatment of tumor samples with FolR1-TCB (T cell activation)", "format": "cell-based, human", "procedure": "FolR1 positive tumor digests or malignant effusions were thawed, washed and plated in 96-well flat bottom cell culture plates (BD Falcon) with a density of 3×10^5 cells/200 μl/well in complete medium (DMEM+Sodium Pyruvate (1 mM)+MEM non essential AA (1×)+L-Glutamin (2 mM)+Penicillin/Streptomycin ([…])+2-Mercaptoethanol ([…])+Ciproxin (1 mg/ml)+10% human Serum). The samples were cultured in the presence or absence of FolR1-TCB or DP47 TCB at a concentration of 2 nM for 24h. Activation of CD8+ and CD4^+ T cells (CD45^+CD3+) upon FolR1-TCB treatment was determined by multicolor flow cytometry by measuring the expression of the cell surface markers CD25, CD69, CD137, ICOS, PD-1 and Tim-3. Furthermore the expression of granzyme B and IFN-γ was determined by intracellular staining.\nTo determine FolR1-TCB induced T cell activation, tumor samples were cultured in the presence or absence of FolR1-TCB or the control TCB DP-47. Then, T cells were characterized by multicolor flow cytometry for expression of activation markers and T cell effector functions, as described above. […] FolR1-TCB-induced perforin secretion was highly variable in TILs, and severely impaired in a subset of patients (FIG. 12N)."}, "[5]": {"test_system": "CFSE-labelled Skov3 cells", "test": "Killing assay with tumor samples", "format": "cell-based, human", "procedure": "To determine the FolR1-TCB induced tumor cell killing, 3×10^4 CFSE-labelled Skov3 cells were cocultured with tumor samples in the presence or absence of FolR1-TCB at a concentration of 2 nM for 24h in 96-well flat bottom cell culture plates. The E:T ratio (E: effector CD45^+CD3^+ cells; T: target FolR1^+ cells from tumor and added Skov3 cells) was adjusted to 1:1 in each well and the cell number of the added tumor samples was calculated for each sample according to prior characterization by flow cytometry. Cell death of Skov3 cells was determined by flow cytometry by measuring activated caspase 3 and the live/dead marker Live/Dead-near-IR. The assay was performed in triplicates. The FolR1-TCB mediated killing was calculated according to the following equation: % of specific killing=100−[(% of Skov3 live cells in FolR1-TCB treated sample/% of Skov3 live cells in untreated sample)×100].\nTo compare the FolR1-TCB-induced killing capacity of T-cells between tumor samples, and to exclude additional factors suppressing T-cell functionality, such as expression of PD-L1 on the tumor cells, we exogenously added CFSE-labeled FolR1^+ Skov3 cells to the tumor digests and adjusted the E:T ratio to 1:1, essentially as described above. We then measured the FolR1-TCB-induced killing of CFSE-labeled Skov3 cells, which allowed us to also include FolR1^− tumor samples into the analysis. […]"}, "[6]": {"test_system": "CD8^+ T-cells with FolR1^+ ovarian cancer cell line Skov3", "test": "PBMCs from healthy donors co-cultured with Skov3 cells, FolR1-TCB", "format": "cell-based, human", "details": "0.6 pM to 2 nM for 24 h", "procedure": "FIGS. 40A-C show activation of CD8^+ T-cells upon exposure to increasing concentrations of FolR1-TCB. PBMCs were co-cultured with Skov3 cells for 24 h in the presence or absence of FolR1-TCB or the unspecific control DP-47-TCB. […] Shaded histogram: isotype control; open histogram: anti-FolR1-antibody. FIG. 40B: The expression of the activation markers CD25, CD137, and ICOS on CD8^+ T-cells was determined by flow cytometry.\nTo assess the effect of FolR1-TCB on T-cell activation peripheral blood mononuclear cells (PBMCs) from healthy donors were co-cultured with the FolR1^+ ovarian cancer cell line Skov3 (FIG. 40A). […] In addition, T-cells secreted IL-2, IFN-γ, and TNF."}, "[7]": {"test_system": "T cells in tumor digests", "test": "Polyclonal stimulation with anti-CD3/CD28 antibodies and PD-1 blockade", "format": "cell-based, human", "details": "10 μg/ml, 24 hrs"}, "[8]": {"test_system": "T cells in FolR1^+ tumor digests or malignant effusions", "test": "FolR1-TCB with PD-1 blockade in tumor digests or malignant effusions", "format": "cell-based, human", "details": "combination with FolR1-TCB", "procedure": "FIG. 38A-D: FolR1^+ tumor digests or malignant effusions were cultured for 24 h with FolR1-TCB in the presence or absence of a PD-1 blocking antibody. […] The increase in cytokine secretion upon combined FolR1-TCB and anti-PD-1 treatment compared with FolR1-TCB alone was determined in PD-1^hi scarce and abundant tumors. FIG. 38E: Tumor digests or malignant effusions were co-cultured with exogenously added fluorescently labeled Skov3 cells at an E:T ratio of 1:1 for 24 h in the presence or absence of a PD-1 blocking antibody and FolR1-TCB. The increase in specific killing by the anti-PD-1 antibody was compared in PD-1^hi scarce and abundant tumors. p-values were calculated using the unpaired Mann-Whitney test.\nAs the level of PD-1 expression on TILs correlates with the efficacy of FolR1-TCB, we analyzed whether blockade of the PD-1/PD-L1 axis in combination with FolR1-TCB treatment might be able to restore T-cell function."}, "[9]": {"test_system": "T cells in EpCAM positive tumor digests or malignant effusions", "test": "Ex vivo treatment of tumor samples with catumaxomab", "format": "cell-based, human", "details": "10 ng/ml, 24h; 4 NSCLC tumor digests", "procedure": "The trifunctional TCB catumaxomab (Removab®) was obtained from Fresenius. The experimental conditions were similar as indicated above for FolR1-TCB. Briefly, EpCAM positive tumor digests or malignant effusions were cultured in the presence or absence of catumaxomab at a concentration of 10 ng/ml for 24h. Analysis of CD8÷ and CD4^+ positive T cells (CD45^+CD3+) was performed as described above.\nTo determine to which extent catumaxomab induces T cell activation and to confirm the findings described above using a second, independent T cell bispecific molecule, 4 tumor digests from patients with NSCLC were exposed to catumaxomab, a trifunctional bispecific antibody recognizing CD3 on T cells and EpCAM on tumor cells. Then, T cells were characterized by flow cytometry for expression of activation markers and T cell effector functions (FIG. 17A-D). […] Accordingly, the baseline expression of inhibitory receptors differed between the patients (FIG. 17E-H)."}}}
{"substance": "DP47 TCB: untargeted TCB, negative control, prepared as described in WO2014/131712", "values": [{"measurement": "binding to panel of tumor cell lines", "setting": "[1]", "value": "no binding"}, {"measurement": "T cell mediated killing (in words)", "setting": "[2]", "value": "does not induce any killing"}, {"measurement": "upregulation of CD25 and CD69 on T cells (in words)", "setting": "[3]", "value": "no significant upregulation of CD25 and CD69 on T cells"}, {"measurement": "T cell activation in tumor samples (in words)", "setting": "[4]", "value": "did not induce any T cell activation"}, {"measurement": "tumor cell killing (in words)", "setting": "[5]", "value": "did not induce any tumor cell killing"}, {"measurement": "activation of CD8^+ T-cells (in words)", "setting": "[6]", "value": "did not induce any T-cell activation"}]}
{"substance": "nivolumab: PD-1 blocking antibody", "values": [{"measurement": "restoration of T cell effector function by PD-1 blockade (in words)", "setting": "[7]", "value": "could restore T cell effector function such as production and secretion of IL-2, IFN-γ and TNF-α only in some patients"}, {"measurement": "secretion of IFN-γ, TNF, IL-2 and perforin upon combined treatment with FolR1-TCB (in words)", "setting": "[8]; 24 h", "value": "could be increased only in some of the PD-1^hi scarce tumors"}, {"measurement": "cytotoxic tumor cell killing upon additional PD-1 blockade (in words)", "setting": "[8]; Skov3 cells E:T 1:1", "value": "could neither be improved"}]}
{"substance": "catumaxomab", "values": [{"measurement": "catumaxomab induced T cell activation (in words)", "setting": "[9]", "value": "striking heterogeneity in catumaxomab induced T cell activation"}]}
